In patent US20060210620A1, “Co-precipitated amorphous losartan and dosage forms comprising the same” (priority 2003, published 2006):

Assay: Accelerated stability testing at 40° C. and 75% relative humidity, solid form evaluated by X-ray diffraction
Assay type: physicochemical
Conditions: storage time not stated (spectra taken later in time, FIG. 1)
Method: The term “stable” as used herein refers to less than about 5% conversion of the amorphous form of losartan to a crystalline form of losartan when stored at 40° C. and 75 percent relative humidity for three months.
The amorphous solids of the following examples were evaluated for the presence of crystals and/or other degradative products using X-ray diffraction (XRD) techniques, supplemented with infrared and differential scanning calorimetry. The examples are meant to further exemplify the invention and are not intended to limit the scope of the invention.

CCCCc1nc(Cl)c(CO)n1Cc1ccc(-c2ccccc2-c2nn[nH]n2)cc1 [Example 1, losartan potassium]
Solid form (amorphous/crystalline) by XRD after accelerated stability conditions: almost all of the solid material converted to the crystalline form
